# Earlier results in article PMC7520419 (The AAPS Journal, 2020).
# Structures can show the parent of a compound that is named as a salt.
# Settings: active metabolite measured; fed vs fasted; compiled by literature search; cited from earlier work
row,SMILES,Food Effect
1,COC(=O)[C@H](c1ccccc1Cl)N1CCc2sccc2C1 [Clopidogrel bisulfate],None (none if no significant change in AUC and Cmax with food)

# Same assay, conditions: clinically observed PK change (AUC, Cmax) fed vs fasted; compiled by literature search; cited from earlier work
row,SMILES,Food Effect
1,CCCCC(C)(O)C/C=C/[C@H]1[C@H](O)CC(=O)[C@@H]1CCCCCCC(=O)OC (mixture of isomers) [Misoprostol],None (none if no significant change in AUC and Cmax with food)
2,Nc1nc(NC2CC2)c2ncn([C@H]3C=C[C@@H](CO)C3)c2n1 [Abacavir sulfate],None (none if no significant change in AUC and Cmax with food)
3,COc1cc(C)c(/C=C/C(C)=C/C=C/C(C)=C/C(=O)O)c(C)c1C [Acitretin],Positive (positive if the ratio of fed > fasted)
4,CCCSc1ccc2nc(NC(=O)OC)[nH]c2c1 [Albendazole],Positive (positive if the ratio of fed > fasted)
5,COc1cc2nc(N(C)CCCNC(=O)C3CCCO3)nc(N)c2cc1OC (centres unmarked) [Alfuzosine],Positive (positive if the ratio of fed > fasted)
6,CCCCc1oc2ccccc2c1C(=O)c1cc(I)c(OCCN(CC)CC)c(I)c1 [Amiodarone],Positive (positive if the ratio of fed > fasted)
7,O=C1CCc2ccc(OCCCCN3CCN(c4cccc(Cl)c4Cl)CC3)cc2N1 [Aripiprazole],None (none if no significant change in AUC and Cmax with food)
8,CC(C)c1c(C(=O)Nc2ccccc2)c(-c2ccccc2)c(-c2ccc(F)cc2)n1CC[C@@H](O)C[C@@H](O)CC(=O)O [Atorvastatin],None (none if no significant change in AUC and Cmax with food)
9,O=C1C(O)=C([C@H]2CC[C@H](c3ccc(Cl)cc3)CC2)C(=O)c2ccccc21 [Atovaquone],Positive (positive if the ratio of fed > fasted)
10,CNC(=O)c1ccccc1Sc1ccc2c(/C=C/c3ccccn3)n[nH]c2c1 [Axitinib],None (none if no significant change in AUC and Cmax with food)
11,CC(O)(CS(=O)(=O)c1ccc(F)cc1)C(=O)Nc1ccc(C#N)c(C(F)(F)F)c1 (centres unmarked) [Bicalutamide],None (none if no significant change in AUC and Cmax with food)
12,CC(=O)N(CCC(CCN1CCCCC1)(C(N)=O)c1ccccc1Cl)C(C)C (centres unmarked) [Bidisomide],Negative (negative if ratio fasted > fed)
13,O=C1CN=C(c2ccccn2)c2cc(Br)ccc2N1 [Bromazepam],Negative (negative if ratio fasted > fed)
14,CC(C)C[C@H]1C(=O)N2CCC[C@H]2[C@]2(O)O[C@](NC(=O)[C@@H]3C=C4c5cccc6[nH]c(Br)c(c56)C[C@H]4N(C)C3)(C(C)C)C(=O)N12 [Bromocriptine],None (none if no significant change in AUC and Cmax with food)
15,COc1cc2nccc(Oc3ccc(NC(=O)C4(C(=O)Nc5ccc(F)cc5)CC4)cc3)c2cc1OC [Cabozantinib],Positive (positive if the ratio of fed > fasted)
16,CCCCCOC(=O)Nc1nc(=O)n([C@@H]2O[C@H](C)[C@@H](O)[C@H]2O)cc1F [Capecitabine],Negative (negative if ratio fasted > fed)
17,C=CC1=C(C(=O)O)N2C(=O)[C@@H](NC(=O)/C(=N\O)c3csc(N)n3)[C@H]2SC1 [Cefdinir],None (none if no significant change in AUC and Cmax with food)
18,CO/N=C(\C(=O)N[C@@H]1C(=O)N2C(C(=O)OCOC(=O)C(C)(C)C)=C(/C=C\c3scnc3C)CS[C@H]12)c1csc(N)n1 [Cefditoren pivoxil],Positive (positive if the ratio of fed > fasted)
19,Cc1ccc(-c2cc(C(F)(F)F)nn2-c2ccc(S(N)(=O)=O)cc2)cc1 [Celecoxib],Slightly positive
20,O=P(O)(O)C(Cl)(Cl)P(=O)(O)O [Clodronate],Negative (negative if ratio fasted > fed)
21,C[C@@H](Oc1cc(-c2cnn(C3CCNCC3)c2)cnc1N)c1c(Cl)ccc(F)c1Cl [Crizotinib],None (none if no significant change in AUC and Cmax with food)

# Same assay, conditions: prodrug measured; fed vs fasted; compiled by literature search; cited from earlier work
row,SMILES,Food Effect
1,COC(=O)[C@H](c1ccccc1Cl)N1CCc2sccc2C1 [Clopidogrel bisulfate],Positive (positive if the ratio of fed > fasted)
